Results on one molecule are retold here after patent US20150168386A1, “METHOD AND SYSTEM FOR IDENTIFYING LEAKY LUNG EPITHELIAL BARRIER” (priority 2013, published 2015).

For one data set, the system named is 16HBE cells. Kind of data set: flux of mannitol across human bronchial epithelial monolayers. It is filed as in vitro ADME. The note with it: 16HBE cells confluent on semipermeable membrane; lower chamber after 1 hour, colorimetric assay; unstimulated or PolyI:C pretreated 18 hours. On the procedure: The x-axis indicates the concentration of mannitol applied to the upper chamber of 16HBE cells grown to confluence on a semipermeable membrane. The y-axis indicates the concentration of mannitol detected in the lower chamber after 1 hour, determined using a colorimetric assay (where OD refers to optical density). 16HBE cells were either unstimulated (open bars) or pretreated with the viral mimetic PolyI:C (closed bars) for 18 hours prior to analysis of mannitol permeability. Note that in both unstimulated and PolyI:C-stimulated cells, the mannitol concentration detected in the lower chamber increased steadily with the concentration of mannitol applied to the top chamber (i.e. there was no plateau). This is indicative of movement across the monolayer via paracellular routes (as opposed to receptor mediated transport, for example).

Details of data set [1]: species or system C57BL/6 mice. The note with it: mouse, in vivo. The source says:
In this experiment, 6-8 week old C57BL/6 mice were infected with a clinical isolate of RSV 9 (strain A2) intranasally (i.n.) on day 0 (d0), and then challenged with orally inhaled mannitol on days 2 and 4 as indicated by the arrows in the schematic (top of figure). Two hours after each mannitol inhalation, urine was collected from mice by scruffing, and analyzed for mannitol using a colorimetric assay. They are expressed as fold change in urine mannitol relative to uninfected control mice on d0, which was set at 1. Data are mean±standard error of the mean, of n=5-6 mice per group. * indicated p<0.05.

Data set [2] can be described thus: urinary mannitol clearance after inhaled mannitol in human subjects. It is filed as in vivo. The note with it: 635 mg inhaled mannitol; urine over 24 hours, mass spectrometry; 6 subjects with asthma symptoms vs 2 healthy controls. The source says:
Results are expressed as urinary mannitol clearance, or the concentration in the urine samples collected multiplied by the amount of urine produced. […] The horizontal bar indicates mean values.

With `OC[C@@H](O)[C@@H](O)[C@H](O)[C@H](O)CO` [mannitol], the “flux of mannitol across the monolayer” value with 16HBE cells was “non-saturable”. The “excretion of orally inhaled mannitol (fold change in urine mannitol relative to uninfected control mice on d0)” value in data set [1] is on record as “higher in mice infected with respiratory syncytial virus (RSV) infection”. In addition, the urinary mannitol clearance entry in data set [2] is “Subjects with asthma symptoms had higher mannitol clearance on average”.
